Reference: PMC3560935 (Anesthesiology, 2011)
Entries after “also recorded” stand apart in the source; their conditions may differ.

How the values were obtained:
[1] = target: human nociceptin receptor (Homo sapiens, UniProt P41146); format: binding
[2] = tested on: Swiss-Webster mice; settings: mouse, in vivo
[3] = tested on: Swiss-Webster mice; settings: mouse, in vivo; remark: listed apart in the source
[4] = tested on: Swiss-Webster mice; settings: mouse, in vivo; remark: listed apart in the source
[5] = mouse, in vivo
[6] = administered intracerebroventricularly; cited from earlier work

human nociceptin receptor, sequence (P41146 whole entry): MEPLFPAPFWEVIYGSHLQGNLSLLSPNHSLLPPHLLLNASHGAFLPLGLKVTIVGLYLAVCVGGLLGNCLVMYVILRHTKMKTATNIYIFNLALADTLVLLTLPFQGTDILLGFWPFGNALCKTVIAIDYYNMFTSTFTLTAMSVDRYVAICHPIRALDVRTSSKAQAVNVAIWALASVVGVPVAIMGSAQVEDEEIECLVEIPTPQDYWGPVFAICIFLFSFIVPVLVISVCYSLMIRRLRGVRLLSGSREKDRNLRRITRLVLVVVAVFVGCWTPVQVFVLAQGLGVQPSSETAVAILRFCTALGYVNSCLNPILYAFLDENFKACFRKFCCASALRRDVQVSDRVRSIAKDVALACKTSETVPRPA

CO[C@]12CC[C@@]3(C[C@@H]1[C@](C)(O)C(C)(C)C)[C@H]1Cc4ccc(O[C@@H]5O[C@H](C(=O)O)[C@@H](O)[C@H](O)[C@H]5O)c5c4[C@@]3(CCN1CC1CC1)[C@H]2O5 [Buprenorphine-3-glucuronide, buprenorphine-3-glucuronide]
Ki ([1]; read-out: apparent Ki, Nociceptin): 36 ± 0.3 µM | effect on minute ventilation (in words) [2]: Neither buprenorphine nor B3G affected | effect on respiratory rate (in words) [2]: Neither B3G nor N3G had a significant effect | antinociceptive effect (in words) [3]: small antinociceptive effect; also recorded: mild antinociceptive activity | total locomotor activity compared to control / sedation (in words) [4]: did not cause a decrease | Concentration, Brain Homogenate [5]: 1.4 ± 0.7 ng/mL | Concentration, Plasma [5]: 133 ± 44 ng/mL

CN1CC[C@]23c4c5ccc(O)c4O[C@H]2[C@@H](O[C@@H]2O[C@H](C(=O)O)[C@@H](O)[C@H](O)[C@H]2O)C=C[C@H]3[C@H]1C5 [Morphine-6-glucuronide]
potency relative to morphine [6]: 300 times

Buprenorphine
affinity for the nociceptin receptor (in words) [1]: low affinity | dose with the greatest analgesic response [3]: 0.3 mg/kg | time to onset of antinociception [3]: 30 min | time to peak antinociceptive effect [3]: 45 min
